Experimental data published in PubChem BioAssay (NCI).
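Compound exposure: 48 hours, 5 concentrations, 96-well plates. GI50 = concentration required for 50% inhibition of growth. Definition used: TGI = concentration required for complete inhibition of growth.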

Columns and labels:
Test in all cases: DTP human tumour cell line panel, 48 h
OVCAR-3 ovarian = test system: OVCAR-3 ovarian
ACHN renal = test system: ACHN renal
CCRF-CEM leukemia = test system: CCRF-CEM leukemia
NCI/ADR-RES ovarian = test system: NCI/ADR-RES ovarian
MDA-MB-435 = test system: MDA-MB-435
UO-31 renal = test system: UO-31 renal
KM12 colon = test system: KM12 colon
TK-10 renal = test system: TK-10 renal
UACC-257 melanoma = test system: UACC-257 melanoma
SW-620 colon = test system: SW-620 colon
PC-3 prostate = test system: PC-3 prostate
HCC-2998 colon = test system: HCC-2998 colon
SK-OV-3 ovarian = test system: SK-OV-3 ovarian
SF-268 CNS = test system: SF-268 CNS
SR leukemia = test system: SR leukemia
HOP-62 NSCLC = test system: HOP-62 NSCLC
K-562 leukemia = test system: K-562 leukemia
M14 melanoma = test system: M14 melanoma
786-0 renal = test system: 786-0 renal
U251 CNS = test system: U251 CNS
SK-MEL-28 melanoma = test system: SK-MEL-28 melanoma
OVCAR-4 ovarian = test system: OVCAR-4 ovarian
DU-145 prostate = test system: DU-145 prostate
MCF7 breast = test system: MCF7 breast
UACC-62 melanoma = test system: UACC-62 melanoma
OVCAR-8 ovarian = test system: OVCAR-8 ovarian
MDA-MB-231 breast = test system: MDA-MB-231 breast
SF-295 CNS = test system: SF-295 CNS
MALME-3M melanoma = test system: MALME-3M melanoma
SF-539 CNS = test system: SF-539 CNS
IGROV1 ovarian = test system: IGROV1 ovarian
NCI-H522 lung = test system: NCI-H522 lung
BT-549 breast = test system: BT-549 breast
LOX IMVI melanoma = test system: LOX IMVI melanoma
SK-MEL-5 melanoma = test system: SK-MEL-5 melanoma
SNB-19 CNS = test system: SNB-19 CNS
SNB-75 CNS = test system: SNB-75 CNS
T-47D breast = test system: T-47D breast
HS 578T breast = test system: HS 578T breast
NCI-H226 lung = test system: NCI-H226 lung
EKVX NSCLC = test system: EKVX NSCLC
COLO 205 colon = test system: COLO 205 colon
SK-MEL-2 melanoma = test system: SK-MEL-2 melanoma
NCI-H460 lung = test system: NCI-H460 lung
A549 NSCLC = test system: A549 NSCLC
HCT-116 colon = test system: HCT-116 colon
HL-60(TB) leukemia = test system: HL-60(TB) leukemia
SN12C renal = test system: SN12C renal
MOLT-4 leukemia = test system: MOLT-4 leukemia
HT29 colon = test system: HT29 colon
OVCAR-5 ovarian = test system: OVCAR-5 ovarian
HCT-15 colon = test system: HCT-15 colon
HOP-92 NSCLC = test system: HOP-92 NSCLC
NCI-H23 lung = test system: NCI-H23 lung
CAKI-1 renal = test system: CAKI-1 renal
A498 renal = test system: A498 renal
RXF 393 renal = test system: RXF 393 renal

CC1(C)CC[C@]2(C(N)=O)CC[C@]3(C)C(=CC[C@@H]4[C@@]5(C)C/C(=C/c6cccnc6)C(=O)C(C)(C)[C@@H]5CC[C@]43C)[C@@H]2C1
GI50 (OVCAR-3 ovarian): 1.86 µM
TGI (OVCAR-3 ovarian): 3.53 µM
GI50 (ACHN renal): 3.49 µM
TGI (ACHN renal): 13.6 µM
GI50 (CCRF-CEM leukemia): 2.54 µM
TGI (CCRF-CEM leukemia): 7.73 µM
GI50 (NCI/ADR-RES ovarian): 2.71 µM
TGI (NCI/ADR-RES ovarian): 8.96 µM
GI50 (MDA-MB-435): 3.15 µM
TGI (MDA-MB-435): 11.2 µM
GI50 (UO-31 renal): 2.28 µM
TGI (UO-31 renal): 6.83 µM
GI50 (KM12 colon): 2.28 µM
TGI (KM12 colon): 5.72 µM
GI50 (TK-10 renal): 4.05 µM
TGI (TK-10 renal): 30.2 µM
GI50 (UACC-257 melanoma): 3.2 µM
TGI (UACC-257 melanoma): 12.1 µM
GI50 (SW-620 colon): 3 µM
TGI (SW-620 colon): > 100 µM
GI50 (PC-3 prostate): 2.56 µM
TGI (PC-3 prostate): 13.4 µM
GI50 (HCC-2998 colon): 1.71 µM
TGI (HCC-2998 colon): 3.34 µM
GI50 (SK-OV-3 ovarian): 3.95 µM
TGI (SK-OV-3 ovarian): > 100 µM
GI50 (SF-268 CNS): 3.8 µM
TGI (SF-268 CNS): 18 µM
GI50 (SR leukemia): 2.34 µM
TGI (SR leukemia): 7.14 µM
GI50 (HOP-62 NSCLC): 2.84 µM
TGI (HOP-62 NSCLC): 10.1 µM
GI50 (K-562 leukemia): 2.4 µM
TGI (K-562 leukemia): 7.11 µM
GI50 (M14 melanoma): 3.38 µM
TGI (M14 melanoma): 10.9 µM
GI50 (786-0 renal): 3.85 µM
TGI (786-0 renal): 30.5 µM
GI50 (U251 CNS): 3.19 µM
TGI (U251 CNS): 11.2 µM
GI50 (SK-MEL-28 melanoma): 2.26 µM
TGI (SK-MEL-28 melanoma): 4.71 µM
GI50 (OVCAR-4 ovarian): 7.1 µM
TGI (OVCAR-4 ovarian): > 100 µM
GI50 (DU-145 prostate): 3.52 µM
TGI (DU-145 prostate): 16.5 µM
GI50 (MCF7 breast): 2.71 µM
TGI (MCF7 breast): 13.7 µM
GI50 (UACC-62 melanoma): 2.21 µM
TGI (UACC-62 melanoma): 5.13 µM
GI50 (OVCAR-8 ovarian): 3.69 µM
TGI (OVCAR-8 ovarian): > 100 µM
GI50 (MDA-MB-231 breast): 3.8 µM
TGI (MDA-MB-231 breast): 22.3 µM
GI50 (SF-295 CNS): 3.16 µM
TGI (SF-295 CNS): 11.2 µM
GI50 (MALME-3M melanoma): 1.9 µM
TGI (MALME-3M melanoma): 4.05 µM
GI50 (SF-539 CNS): 1.97 µM
TGI (SF-539 CNS): 3.9 µM
GI50 (IGROV1 ovarian): 3.62 µM
TGI (IGROV1 ovarian): 73 µM
GI50 (NCI-H522 lung): 2.43 µM
TGI (NCI-H522 lung): 8.11 µM
GI50 (BT-549 breast): 2.61 µM
TGI (BT-549 breast): 6.83 µM
GI50 (LOX IMVI melanoma): 1.71 µM
TGI (LOX IMVI melanoma): 3.24 µM
GI50 (SK-MEL-5 melanoma): 1.81 µM
TGI (SK-MEL-5 melanoma): 3.33 µM
GI50 (SNB-19 CNS): 4.03 µM
TGI (SNB-19 CNS): 16.5 µM
GI50 (SNB-75 CNS): 9.92 µM
TGI (SNB-75 CNS): > 100 µM
GI50 (T-47D breast): 2.66 µM
TGI (T-47D breast): 11.4 µM
GI50 (HS 578T breast): 5.93 µM
TGI (HS 578T breast): > 100 µM
GI50 (NCI-H226 lung): 2.09 µM
TGI (NCI-H226 lung): 5.78 µM
GI50 (EKVX NSCLC): 3.44 µM
TGI (EKVX NSCLC): > 100 µM
GI50 (COLO 205 colon): 1.86 µM
TGI (COLO 205 colon): 3.76 µM
GI50 (SK-MEL-2 melanoma): 2.22 µM
TGI (SK-MEL-2 melanoma): 4.99 µM
GI50 (NCI-H460 lung): 2.2 µM
TGI (NCI-H460 lung): 5.33 µM
GI50 (A549 NSCLC): 3.31 µM
TGI (A549 NSCLC): > 100 µM
GI50 (HCT-116 colon): 1.8 µM
TGI (HCT-116 colon): 3.68 µM
GI50 (HL-60(TB) leukemia): 2.04 µM
TGI (HL-60(TB) leukemia): 4.55 µM
GI50 (SN12C renal): 2.31 µM
TGI (SN12C renal): 5.24 µM
GI50 (MOLT-4 leukemia): 2.01 µM
TGI (MOLT-4 leukemia): 6.3 µM
GI50 (HT29 colon): 2.1 µM
TGI (HT29 colon): 4.56 µM
GI50 (OVCAR-5 ovarian): 1.93 µM
TGI (OVCAR-5 ovarian): 4.16 µM
GI50 (HCT-15 colon): 2.09 µM
TGI (HCT-15 colon): 4.31 µM
GI50 (HOP-92 NSCLC): 2.66 µM
TGI (HOP-92 NSCLC): 8.7 µM
GI50 (NCI-H23 lung): 3.31 µM
TGI (NCI-H23 lung): > 100 µM
GI50 (CAKI-1 renal): 2.92 µM
TGI (CAKI-1 renal): 13 µM
GI50 (A498 renal): 2.06 µM
TGI (A498 renal): 4.06 µM
GI50 (RXF 393 renal): 1.67 µM
TGI (RXF 393 renal): 3.3 µM
